Test systems include HOP-92 NSCLC; CCRF-CEM leukemia; 786-0 renal; LOX IMVI melanoma; ACHN renal; SW-620 colon; HT29 colon; U251 CNS; PC-3 prostate.
Holding throughout (test): inhibition of tumour cell growth, NCI panel, 48 h

Among the data in PubChem BioAssay (NCI) are GI50 and TGI values, retold here.

The structures appear in SMILES notation.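 Cells were grown in 96-well plates and exposed to each compound for 48 hours at five concentrations; endpoints were interpolated linearly between bracketing concentrations, or set to the highest concentration if not reached. Abbreviation: GI50, concentration required for 50% inhibition of growth. The concentration for full growth arrest is given as TGI.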

`C[CH2][Ge]([CH2]C)([CH2]C)[O]C(=O)C([O][Ge]([CH2]C)([CH2]C)[CH2]C)c1ccccc1` (centres undefined): the GI50 in the test on HOP-92 NSCLC was 4.32 µM; with CCRF-CEM leukemia, 20.6 µM; in the test on 786-0 renal it was 22.4 µM; in the test on LOX IMVI melanoma it was 12 µM; with ACHN renal, 15 µM; in the test with SW-620 colon, 18.9 µM. For the same molecule, the GI50 is 16.4 µM with HT29 colon and 17.2 µM in the test with U251 CNS. In addition, the TGI in the test on HOP-92 NSCLC is 45.9 µM; with CCRF-CEM leukemia, over 100 µM; with 786-0 renal it was 74.3 µM; with LOX IMVI melanoma it was 24.5 µM; in the test on ACHN renal, 51.3 µM; in the test on SW-620 colon it was 42.2 µM. Further, the TGI amounted to 46.4 µM with HT29 colon and 41.4 µM in the test with U251 CNS.

On to `O=C([CH-]C(=O)c1ccccc1)c1ccccc1.[CH3-].[CH3-].[CH3-].[Sn+4]`, for which the GI50 with HOP-92 NSCLC was 27.8 µM; in the test on 786-0 renal, 10.2 µM; in the test with LOX IMVI melanoma it was 7.95 µM; in the test on ACHN renal, 21 µM; in the test on SW-620 colon, 12.3 µM; in the test with HT29 colon, 19.2 µM. Further, the GI50 with U251 CNS was 6.87 µM. In addition, the TGI with HOP-92 NSCLC is 67.3 µM; with 786-0 renal, 33.1 µM; with LOX IMVI melanoma it was 25.9 µM; in the test with ACHN renal, over 100 µM; in the test on SW-620 colon it was 26 µM; with HT29 colon, 60.3 µM. This molecule also returned a TGI in the test on U251 CNS of 52 µM.

For `CC(=O)Oc1ccccc1C(=O)NCCC[Se]C#N`, the GI50 with HOP-92 NSCLC was 1.49 µM; in the test on CCRF-CEM leukemia, 2.89 µM; in the test with 786-0 renal it was 2.1 µM; in the test with LOX IMVI melanoma, 1.51 µM; with ACHN renal, 2.29 µM; in the test on SW-620 colon, 3.47 µM. The figures for the GI50 in the test with HT29 colon, with PC-3 prostate and in the test with U251 CNS were 3.51 µM, 1.93 µM and 1.6 µM, respectively. For the same molecule, the TGI with HOP-92 NSCLC was found to be 3.05 µM; with CCRF-CEM leukemia, 21.1 µM; in the test on 786-0 renal, 4.38 µM; with LOX IMVI melanoma, 5.26 µM; with ACHN renal, 4.3 µM; in the test on HT29 colon, 11.2 µM. Besides, the TGI in the test with PC-3 prostate was 5.47 µM; with U251 CNS, 2.95 µM.

Take `CCP(C)(C)=O`: the TGI in the test on CCRF-CEM leukemia, in the test on 786-0 renal, in the test with LOX IMVI melanoma, in the test on ACHN renal, in the test with SW-620 colon and in the test on HT29 colon was over 100 µM in each case. Moreover, the TGI in the test with U251 CNS is over 100 µM.

Regarding `CC1(C)Cc2nnsc2C2=C1C(=O)CCS2`, the TGI with HOP-92 NSCLC, with CCRF-CEM leukemia, in the test on 786-0 renal, in the test on LOX IMVI melanoma, in the test on ACHN renal and in the test on SW-620 colon was over 100 µM in each case. For the same molecule, the TGI in the test with HT29 colon and in the test on U251 CNS was over 100 µM throughout.

With `C/C=C/C=C/CCCCCCCCCCCCC[C@]1(OC)C=CC(CC(=O)OC)OO1` (some centres undefined), the GI50 in the test on CCRF-CEM leukemia was 6.9 µM; in the test on 786-0 renal, 17.1 µM; in the test on LOX IMVI melanoma, 19.3 µM; in the test on ACHN renal, 16.6 µM; in the test on SW-620 colon it was 16.7 µM; in the test on HT29 colon, 21.9 µM. Moreover, the TGI with CCRF-CEM leukemia turned out to be 28.7 µM; in the test on 786-0 renal it was 33.4 µM; with LOX IMVI melanoma, 37.1 µM; in the test with ACHN renal, 31.4 µM; in the test on SW-620 colon it was 33 µM; in the test with HT29 colon, 48.1 µM.

For `CCOC(=O)C1=C(c2ccccc2)NC(c2ccccc2)=C(C(=O)OCC)c2c1c(=O)cc[nH]c2=O`, the TGI in the test on HOP-92 NSCLC, in the test on 786-0 renal, in the test on LOX IMVI melanoma, in the test with ACHN renal, in the test with SW-620 colon and with HT29 colon was over 100 µM each time. In the test with U251 CNS, this molecule showed a TGI of over 100 µM.

Consider `NCCn1cnc2nc(NC(=O)c3ccccc3)[nH]c(=O)c21`, for which the TGI in the test on HOP-92 NSCLC, in the test with 786-0 renal, with LOX IMVI melanoma, with ACHN renal, in the test with SW-620 colon and in the test with HT29 colon was over 100 µM in each case. For the same molecule, the TGI with U251 CNS was over 100 µM.

Regarding `Cc1ccccc1NC(=O)C(=O)CC(=O)C1CCOC1=O` (centres undefined), the TGI in the test with HOP-92 NSCLC, in the test on CCRF-CEM leukemia, in the test with 786-0 renal, in the test with LOX IMVI melanoma, with ACHN renal and in the test on SW-620 colon was over 100 µM throughout. For the same molecule, the TGI with U251 CNS is over 100 µM.

Turning to `Cc1cccc(C)c1NC(=O)CCCC(=O)C(C#N)c1ccc(Cl)cc1` (centres undefined), the TGI with HOP-92 NSCLC, in the test on CCRF-CEM leukemia, in the test with 786-0 renal, with LOX IMVI melanoma, in the test with ACHN renal and with SW-620 colon was over 100 µM throughout. Besides, the TGI with HT29 colon and with U251 CNS was over 100 µM each time.

As to `COc1ccc(/C(=C\c2cc(OC)c(OC)c(OC)c2)C(=O)O)cc1`, the TGI with HOP-92 NSCLC, with CCRF-CEM leukemia, with 786-0 renal, in the test on LOX IMVI melanoma, with ACHN renal and in the test on SW-620 colon was over 100 µM throughout. The TGI in the test on HT29 colon and in the test on U251 CNS was over 100 µM throughout.

For `COc1ccc(C(=O)C/C(=N/NC(N)=S)C(=O)Nc2ccccc2)cc1`, the TGI with CCRF-CEM leukemia, in the test with 786-0 renal, with LOX IMVI melanoma, in the test with ACHN renal, in the test with SW-620 colon and with HT29 colon was over 100 µM each time. For the same molecule, in the test on U251 CNS, the TGI is over 100 µM.

With `CCOC(=O)C1=C(C)N(NC(=O)OC)C2(N)N(NC(=O)OC)C(C)=C(C(=O)OCC)C12C#N` (centres undefined), the TGI with 786-0 renal, in the test on LOX IMVI melanoma, in the test on ACHN renal, in the test with SW-620 colon, in the test with HT29 colon and in the test on U251 CNS was over 100 µM throughout.
